Source: ChEMBL document CHEMBL1201862, “PubChem BioAssay data set” (2004)
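Grown in 96-well plates, cells were treated for 48 hours with each compound at five concentrations. Insufficient inhibition: endpoint recorded as highest concentration tested. GI50 is the concentration that inhibits growth by half.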 Activity calls are given as the source filed them. No stated cut-off is given here; in the data, active = GI50 up to about 1.1 µM and inactive = higher.

Assays:
Experiment in all cases: growth of human tumour cells (NCI), 48 h
UACC-257 = system: UACC-257
MDA-N = system: MDA-N
HL-60 = system: HL-60
HOP-92 = system: HOP-92
SK-MEL-28 = system: SK-MEL-28
COLO 205 = system: COLO 205
SK-MEL-2 = system: SK-MEL-2
OVCAR-4 = system: OVCAR-4
NCI-H460 = system: NCI-H460
Malme-3M = system: Malme-3M
HCT-116 = system: HCT-116
EKVX = system: EKVX
HT-29 = system: HT-29
RXF 393 = system: RXF 393
SK-OV-3 = system: SK-OV-3
MCF7 = system: MCF7
SW-620 = system: SW-620
MDA-MB-231 = system: MDA-MB-231
MOLT-4 = system: MOLT-4
A498 = system: A498

SMILES | GI50 (UACC-257) | GI50 (MDA-N) | GI50 (HL-60) | GI50 (HOP-92) | GI50 (SK-MEL-28) | GI50 (COLO 205) | GI50 (SK-MEL-2) | GI50 (OVCAR-4) | GI50 (NCI-H460) | GI50 (Malme-3M) | GI50 (HCT-116) | GI50 (EKVX) | GI50 (HT-29) | GI50 (RXF 393) | GI50 (SK-OV-3) | GI50 (MCF7) | GI50 (SW-620) | GI50 (MDA-MB-231) | GI50 (MOLT-4) | GI50 (A498)
O=c1oc2c(Cl)cc(Cl)cc2cc1-c1cn2c(n1)sc1ccccc12 | > 100 µM (inactive) | 38.6 µM (inactive) | 23.9 µM (inactive) | 56.1 µM (inactive) | > 100 µM (inactive) | 90.4 µM (inactive) | > 100 µM (inactive) | 47.6 µM (inactive) | > 100 µM (inactive) | > 100 µM (inactive) | 27.9 µM (inactive) | 65.8 µM (inactive) | 71.1 µM (inactive) | 31.2 µM (inactive) | > 100 µM (inactive) | 44.1 µM (inactive) | 31.9 µM (inactive) | 28.4 µM (inactive) | 20.4 µM (inactive) | –
O=C1Nc2ccccc2/C1=N/NC(=S)Nc1ccc([N+](=O)[O-])cc1 | 21.1 µM (inactive) | 11.4 µM (inactive) | > 100 µM (inactive) | 13.2 µM (inactive) | 14.2 µM (inactive) | 10.3 µM (inactive) | 4.25 µM (inactive) | 18.6 µM (inactive) | 2.51 µM (inactive) | 5.28 µM (inactive) | 5.71 µM (inactive) | 12.3 µM (inactive) | 18.4 µM (inactive) | – | 4.76 µM (inactive) | 7.93 µM (inactive) | 4.01 µM (inactive) | 0.208 µM (active) | 2.28 µM (inactive) | –
COc1cccc(NC(=O)C(C#N)=C(SC)SC)c1 | > 100 µM (inactive) | > 100 µM (inactive) | – | 46 µM (inactive) | > 100 µM (inactive) | > 100 µM (inactive) | > 100 µM (inactive) | > 100 µM (inactive) | > 100 µM (inactive) | > 100 µM (inactive) | > 100 µM (inactive) | > 100 µM (inactive) | > 100 µM (inactive) | > 100 µM (inactive) | > 100 µM (inactive) | 72.9 µM (inactive) | > 100 µM (inactive) | > 100 µM (inactive) | 62.2 µM (inactive) | > 100 µM (inactive)
O=C1Nc2ccccc2/C1=N/Nc1nc(-c2cccc([N+](=O)[O-])c2)cs1 | 19.3 µM (inactive) | 31.1 µM (inactive) | 25.1 µM (inactive) | 20.1 µM (inactive) | 19.5 µM (inactive) | 27.1 µM (inactive) | 31.5 µM (inactive) | 21 µM (inactive) | 16.9 µM (inactive) | – | 19.2 µM (inactive) | 22.5 µM (inactive) | 17.7 µM (inactive) | 29.5 µM (inactive) | 29.9 µM (inactive) | 23.9 µM (inactive) | 36.8 µM (inactive) | 17.7 µM (inactive) | 31.5 µM (inactive) | 21.8 µM (inactive)
O=c1c(C(c2ccccn2)c2c(O)oc3cc(O)ccc3c2=O)c(O)oc2cc(O)ccc12 | > 100 µM (inactive) | > 100 µM (inactive) | – | > 100 µM (inactive) | > 100 µM (inactive) | > 100 µM (inactive) | > 100 µM (inactive) | – | > 100 µM (inactive) | – | > 100 µM (inactive) | > 100 µM (inactive) | > 100 µM (inactive) | > 100 µM (inactive) | > 100 µM (inactive) | > 100 µM (inactive) | > 100 µM (inactive) | > 100 µM (inactive) | > 100 µM (inactive) | > 100 µM (inactive)
C=CCC1(O)c2cccc(O)c2C(=O)c2cccc(O)c21 (stereo not given) | 13 µM (inactive) | 8.22 µM (inactive) | 11.7 µM (inactive) | 17.5 µM (inactive) | 20.5 µM (inactive) | – | 12 µM (inactive) | 29.2 µM (inactive) | 13.9 µM (inactive) | – | 14.4 µM (inactive) | 17.4 µM (inactive) | 22.1 µM (inactive) | 15.7 µM (inactive) | – | 19.6 µM (inactive) | 25.2 µM (inactive) | 21.1 µM (inactive) | 11.3 µM (inactive) | 13.3 µM (inactive)
CSCCCNC(=O)c1csc(-c2csc(C(CNC(=O)OC(C)(C)C)CNC(=O)OC(C)(C)C)n2)n1 | 40.6 µM (inactive) | 51.4 µM (inactive) | – | 43 µM (inactive) | – | 34 µM (inactive) | 27.7 µM (inactive) | 26.9 µM (inactive) | 14.5 µM (inactive) | – | 31.4 µM (inactive) | 58.3 µM (inactive) | – | 68.5 µM (inactive) | 60.3 µM (inactive) | 57.9 µM (inactive) | 58.3 µM (inactive) | 57.8 µM (inactive) | 16.8 µM (inactive) | 55.2 µM (inactive)
